Ends that are not written are not given here.
Columns and labels:
[1] = Time dependent cleavage of DOTA-biotin conjugates in serum (% avidin binding); type: in vitro ADME
Excerpt: The difference in serum stability between DOTA-LC-biotin and DOTA-SC-biotin might be explained by the fact that the SC derivative contains an aromatic amide linkage in contrast to the aliphatic amide linkage of the LC derivative, with the aliphatic amide linkage being more readily recognized by enzymes as a substrate therefor. This argument cannot apply to biotinidase, however, because biotinidase very efficiently cleaves aromatic amides. In fact, it is recognized that the simplest and most commonly employed biotinidase activity measuring method uses N-(d-biotinyl)-4-aminobenzoate (BPABA) as a substrate, with the hydrolysis of BPABA resulting in the liberation of biotin and 4-aminobenzoate (PABA). See, for example, B. Wolf, et al., “Methods in Enzymology,” pp. 103-111, Academic Press Inc., 1990. Consequently, one would predict that DOTA-SC-biotin, like its LC counterpart, would be a biotinidase substrate. […] A series of DOTA-biotin conjugates was therefore synthesized by the present inventors to determine which structural features conferred serum stability to the conjugates.

[2] = tested on: LS-180 tumor xenografts; assay: Tumor uptake of PIP-biocytin after NR-LU-10-streptavidin; type: in vivo, nude mice
Method: The following data are based on experimentation with tumored nude mice (100 mg LS-180 tumor xenografts implanted subcutaneously 7 days prior to study) that received, at time 0, 200 μg of I-125 labeled NR-LU-10-Streptavidin conjugate (950 pmol), as discussed in Example XI above. At 24 hours, the mice received an i.v. injection of PIP-I-131-biocytin (40 μCi) and an amount of cold carrier PIP-I-127 biocytin corresponding to doses of 42 μg (69,767 pmol), 21 μg (34,884 pmol), 5.7 μg (9468 pmol), 2.85 μg (4734 pmol) or 0.5 μg (830 pmol).

[3] = tested on: LS-180 tumor xenografts; assay: Two-step pretargeting with NR-LU-10-avidin and 131I-PIP-biocytin; type: in vivo, nude mice; details: 200 μg NR-LU-10-avidin at t=0, 42 μg 131I-PIP-biocytin at t=36 h
Method: ^131I-PIP-biocytin was evaluated in a two-step pretargeting procedure in tumor-bearing mice. […] At t=0, the mice were injected with 200 μg of NR-LU-10-avidin conjugate labeled with ^125I using PIP-NHS (see Example IV.A.). At t=36 h, the mice received 42 μg of ^131I-PIP-biocytin. […] The described radiohalogenated biotin compounds are amenable to the same types of modifications described in Example VI above for ^186Re-chelate-biotin conjugates. In particular, the following PIP-polylysine-biotin molecule is made by trace labeling polylysine with ^125I-PIP, followed by extensive biotinylation of the polylysine. [drawing 47]

[4] = tested on: LS-180 tumor; assay: Two-step pretargeting in LS-180 animal model
Method: and perform biodistributions at 2, 6, 24, 72, 120 hours after injection of radiolabeled biotinyl molecule

[5] = Excretion of neutral MAMA chelate-biotin conjugate; details: in vivo
Excerpt: Although the net overall charge of the conjugate is neutral, the polycarboxylate nature of the molecule generates regions of hydrophilicity and hydrophobicity. By altering the number and nature of the carboxylate groups within the conjugate, excretion may be shifted from kidney to gastrointestinal routes. For instance, neutral compounds are generally cleared by the kidneys; anionic compounds are generally cleared through the GI system.

[6] = tested on: LS-180 human colon tumor xenografts; assay: Three-step pretargeting in LS-180 xenograft model; details: for tumor uptake: antibody at time 0, avidin at 24 h
Excerpt: The experimental protocol was as follows:
The three radiolabels employed in this protocol are capable of detection in the presence of each other. It is also noteworthy that the sizes of the three elements involved are logarithmically different—antibody≅150,000; avidin≅66,000; and biotin≅1,000.

[7] = Blood clearance and limited biodistribution of orosomucoid and asialoorosomucoid; details: for blood level: I-125-labeled protein i.v.
Method: The asialoorosomucoid and orosomucoid starting material were radiolabeled with I-125 using PIP technology, as described in Example IV above.
In addition, two animals receiving each compound were sacrificed at 5 minutes post-administration and limited biodistributions were performed.

[8] = target: T1, Streptavidin-agarose beads (Streptomyces avidinii, UniProt P22629); assay: Streptavidin-agarose bead binding; details: for Pellet: radioactivity bound to streptavidin-agarose beads; for Supernatant: radioactivity not bound to streptavidin-agarose beads
T1 construct: purchased Sigma S-1638
T1 sequence (P22629 25-183): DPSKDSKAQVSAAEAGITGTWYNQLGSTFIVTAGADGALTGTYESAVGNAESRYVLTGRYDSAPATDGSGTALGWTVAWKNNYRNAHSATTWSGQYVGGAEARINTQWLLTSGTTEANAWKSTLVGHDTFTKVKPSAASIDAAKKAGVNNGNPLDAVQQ
Method: 100 μl of 0.2 M sodium carbonate buffer, pH 9.2, was added to 2 mg (in 1.00 ml PBS) of PIP-125-labeled orosomucoid and to 2 mg PIP-125-labeled asialoorosomucoid. 60 μl of a 1.85 mg/ml solution of NHS-amino caproate biotin in DMSO was then added to each compound. The reaction mixtures were vortexed and allowed to sit at room temperature for 45 minutes. The material was purified by size exclusion column chromatography (PD-10, Pharmacia) and eluted with PBS. 1.2 ml fractions were taken, with fractions 4 and 5 containing the majority of the applied radioactivity (>95%). Streptavidin-agarose beads (Sigma S-1638) or -pellets were washed with PBS, and 20 μg of each biotinylated, radiolabeled protein was added to 400 μl of beads and 400 μl of PBS, vortexed for 20 seconds and centrifuged at 14,000 rpm for 5 minutes. The supernatant was removed and the pellets were washed with 400 μl PBS. This wash procedure was repeated twice more, and the combined supernatants were assayed by placing them in a dosimeter versus their respective pellets.

[9] = tested on: HA peptide; details: physiological conditions, concentrations as low as 10^−13 M; cited from earlier work

With `O=C(CCCCC1SCC2NC(=O)NC21)NCCCC[C@H](NC(=O)c1ccc([125I])cc1)C(=O)O` (some centres unmarked) [PIP-Biocytin, p-[I-125]iodobenzoylbiocytin] the “% Avidin Binding” value ([1]; 5 Minutes at 37° C.) was 75%, the “% Avidin Binding” value ([1]; 15 Minutes at 37° C.) was 57% and the “% Avidin Binding” value ([1]; 30 Minutes at 37° C.) was 31%. The peak tumor uptake ([2]; 0.5 μg dose, 120 hour time point (96 hours after PIP-biocytin)) was 85.0 % ID/G, the tumor localization ([2]; three highest doses (42, 21, 5.7 μg), 4 hours after PIP-biocytin injection) was “about 600 pmol/g” and the “131I-PIP-biocytin molecules per avidin molecule at tumor” value [3] was “≈ 1.5”. For the same compound, the tumor uptake ([4]; 40 hour time point, PIP-BT at 37 hours following LU-10-StrAv) was “above 500 pMOL/G” and the peak tumor uptake ([4]; 45 hours post-LU-10-StrAv administration) was “about 700 pMOL/G”.
In the case of `O=C(O)CN1CCN(CCOO)CCN(CCOO)CCN(CC(=O)O)C(Cc2ccc(NC(=O)CCCCC3SCC4NC(=O)NC43)cc2)C1` (centres unmarked) [Y-90-SC DOTA-Biotin, metal not drawn], the “% Avidin Binding” value ([1]; 20 Hours at 37° C.) is reported as 60%, the “% Avidin Binding” value ([1]; 60 Minutes at 37° C.) is reported as 98% and the serum stability ([1]; in comparison to DOTA-LC-biotin) is reported as “significantly improved serum stability”.
With `CN(CCSCc1ccccc1)CC(CCC(=O)NCCNC(=O)CC1SCC2NC(=O)NC21)NC(=O)CS` (centres unmarked) [neutral MAMA chelate-biotin conjugate] the kidney excretion [5] was “superior kidney excretion”.
In the case of “Avidin: avidin (MW≈66 kD), radiolabeled with 131I/PIP-NHS”, the tumor uptake ([6]; at 25 h) is reported as “about 250 pmol/g”, the tumor uptake ([6]; at 32 h) is reported as roughly 150 pmol/g and the tumor uptake ([6]; at 48 h) is reported as roughly 50 pmol/g. The tumor uptake ([6]; at 120 h) was roughly 0 pmol/g and the “injected dose cleared from the blood” value ([6]; mouse, in vivo) was “greater than 90%”.
With “asialoorosomucoid: orosomucoid treated with neuraminidase” the “uptake in the liver” value ([7]; 5 minutes post-administration) was 86%, the blood level ([7]; 5 minutes post-administration) was 0.4% and the blood clearance ([7]; 5 minutes to 4 hours post-administration) was “clearing more rapidly than its orosomucoid counterpart”. For the same compound, the Pellet [8] was 8.0% and the Supernatant [8] was 92%.
Work on “orosomucoid: human alpha-1 acid glycoprotein [reference compound]” yielded a blood level ([7]; 5 minutes post-administration) of 78%, a Pellet [8] of 10% and a Supernatant [8] of 90%.
For “pGlu-Pto-Pro-Gly-Gly-Ser-Lys-Val-Ile-Leu-Phe (PGGSKVILF; not fully specified (N-terminus); printed as pGlu-Pto-Pro-Gly-Gly-Ser-Lys-Val-Ile-Leu-Phe) [HA peptide]”, the “dissociation of HA dimer into monomers” value [9] is listed as “does not dissociate into monomers”.

— patent US6416738B1, “Pretargeting methods and compounds” (NeoRx Corporation, priority 1973, dated 2002)
